Reference: patent US7105313B2, “Cell-based drug screens for regulators of gene expression” (Amgen Inc., priority 1996, dated 2006)

Legend:
LDLR gene expression [1] = experiment: Northern hybridization of RNA from the LDLR-luciferase knock-in HepG2 cell line; format: cell-based, human; settings: LDLR luciferase knock-in HepG2 cells
Protocol: The LDLR targeting construct was introduced into HepG2 cells by electroporation. Following recovery, the cells were maintained in media supplemented 1 mg/ml G418 and 2 uM gancyclovir for 3-4 weeks until individual colonies were observed. These […] isolated and propagated as individual cultures for further characterization. Individual clones were expanded into 24 well tissue culture plates, and genomic DNA was prepared and analyzed by restriction digestion and Southern hybridization. […] This clone was expanded for further characterization and use as a reporter cell line for LDLR gene expression. To determine whether the expression of luciferase gene is regulated as the same way as the endogenous LDLR gene, RNA was prepared and analyzed by Northern hybridization. […] The cholesterol-dependent regulation is the hallmark of LDLR gene expression. As indicated, the LDLR mRNA was regulated by in the presence or absence of cholesterol, albeit in this case the LDLR mRNA level was reduced to half due to the loss of one allele, which was replaced by the luciferase gene. The use of the luciferase knock-in cell line for LDLR gene expression was further validated by the luciferase activity, which was also regulated by cholesterol as predicted.

LDLR gene expression [2] = experiment: Luciferase activity of the LDLR-luciferase knock-in HepG2 cell line; format: cell-based, human; settings: LDLR luciferase knock-in HepG2 cells
Protocol: To determine whether the expression of luciferase gene is regulated as the same way as the endogenous LDLR gene, RNA was prepared and analyzed by Northern hybridization. […] The cholesterol-dependent regulation is the hallmark of LDLR gene expression. As indicated, the LDLR mRNA was regulated by in the presence or absence of cholesterol, albeit in this case the LDLR mRNA level was reduced to half due to the loss of one allele, which was replaced by the luciferase gene. The use of the luciferase knock-in cell line for LDLR gene expression was further validated by the luciferase activity, which was also regulated by cholesterol as predicted. • Aliquot 100 ul cell suspension (10^4–10^5 primary or cultured, differentiated cells) into each well of 96-well plate under sterile conditions • Add compound or extract to 10 uM final concentration • Incubate 6–18 hrs at 37° C. • Remove incubation media • Add 100 ul lysis/luciferin buffer containing 1.0% non-ionic detergent (Triton x-100), 530 uM ATP, 270 uM coA and 470 uM luciferin (Promega). • Measure luciferase-derived luminescence on automated Torcon AML-34 and 7710 Microplate Luminometer (Cambridge Technologies, Inc.) luminometers.

Row | SMILES | luciferase mRNA (LDLR gene expression [1]; compared with lipid-depleted media, where mRNA was elevated) | LDLR mRNA (LDLR gene expression [1]; presence or absence of cholesterol) | luciferase activity (LDLR gene expression [2])
1 | C[C@H](CCCC(C)(C)O)[C@H]1CC[C@H]2[C@@H]3CC=C4C[C@@H](O)CC[C@]4(C)[C@H]3CC[C@]12C [25-hydroxycholesterol] | suppressed | – | –
2 | CC(C)CCC[C@@H](C)[C@H]1CC[C@H]2[C@@H]3CC=C4C[C@@H](O)CC[C@]4(C)[C@H]3CC[C@]12C [cholesterol] | – | regulated | regulated
